The results in this text go back to PubChem BioAssay AID330 (DTP/NCI, 2004).

The test deals with P388 leukemia ip, CD2F1 mice, survival T/C. Briefly: NCI In Vivo Anticancer Drug Screen. Data for tumor model P388 Leukemia (intraperitoneal) in CD2F1 (CDF1) mice. The following applies: endpoint: median survival time, higher = longer survival. In a few lines:
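Mice carrying the transplanted tumor received test compound or vehicle. Survival was recorded in each group, and the value is the treated-group measurement divided by that of the vehicle-treated control group.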

[1] abbreviates: dose: 100.0 mg/kg/injection, schedule: Q01DX001 (ip), vehicle: saline with Tween-80.
[2] abbreviates: dose: 200.0 mg/kg/injection, schedule: Q01DX001 (ip), vehicle: saline with Tween-80.
The mark [3] stands for this setting: dose: 25.0 mg/kg/injection, schedule: Q01DX009 (ip), vehicle: saline.
Where [4] appears, read: dose: 50.0 mg/kg/injection, schedule: Q01DX009 (ip), vehicle: saline.
The mark [5] stands for this setting: dose: 120.0 mg/kg/injection, schedule: Q01DX005 (ip), vehicle: saline with Tween-80.
[6] abbreviates: dose: 240.0 mg/kg/injection, schedule: Q01DX005 (ip), vehicle: saline with Tween-80.
Where [7] appears, read: dose: 12.5 mg/kg/injection, schedule: Q01DX009 (ip), vehicle: Klucel (hydroxypropylcellulose) (HPC).
Setting [8] is: dose: 50.0 mg/kg/injection, schedule: Q01DX009 (ip), vehicle: Klucel (hydroxypropylcellulose) (HPC).
[9] abbreviates: dose: 100.0 mg/kg/injection, schedule: Q01DX009 (ip), vehicle: Klucel (hydroxypropylcellulose) (HPC).
The mark [10] stands for this setting: dose: 200.0 mg/kg/injection, schedule: Q01DX009 (ip), vehicle: Klucel (hydroxypropylcellulose) (HPC).
The mark [11] stands for this setting: dose: 50.0 mg/kg/injection, schedule: Q01DX005 (ip), vehicle: Klucel (hydroxypropylcellulose) (HPC).
Where [12] appears, read: dose: 100.0 mg/kg/injection, schedule: Q01DX005 (ip), vehicle: Klucel (hydroxypropylcellulose) (HPC).
The mark [13] stands for this setting: dose: 200.0 mg/kg/injection, schedule: Q01DX005 (ip), vehicle: Klucel (hydroxypropylcellulose) (HPC).
[14] abbreviates: dose: 100.0 mg/kg/injection, schedule: Q01DX009 (ip), vehicle: saline with Tween-80.
Setting [15] is: dose: 200.0 mg/kg/injection, schedule: Q01DX009 (ip), vehicle: saline with Tween-80.

Values joined by “and” are separate entries in the source; they are usually repeats but may differ in a detail not shown here. Equal entries are not always repeated. Inconclusive results and toxic doses are left out. Peptide text beside a SMILES is read from it. * marks the point of attachment. Cbz = O=C(OCc1ccccc1)*

In the case of `COc1ccccc1N1C(=S)N(c2cccc(Cl)c2Cl)C(=O)C(N=Nc2cccc(Cl)c2Cl)C1O` (stereo unspecified), the T/C (dose: 100.0 mg/kg/injection, schedule: Q04DX003 (ip), vehicle: Klucel (hydroxypropylcellulose) (HPC)) was 104 % of control; the T/C (dose: 200.0 mg/kg/injection, schedule: Q04DX003 (ip), vehicle: Klucel (hydroxypropylcellulose) (HPC)) was 104 % of control; the T/C (dose: 400.0 mg/kg/injection, schedule: Q04DX003 (ip), vehicle: Klucel (hydroxypropylcellulose) (HPC)) is 98 % of control.
With `O=C1CN(c2cccc(Cl)c2)C(=O)CN1/N=C/c1cccnc1`, the T/C is, setting by setting: (dose: 25.0 mg/kg/injection, schedule: Q01DX005 (ip), vehicle: saline with Tween-80) 96 % of control; (dose: 50.0 mg/kg/injection, schedule: Q01DX005 (ip), vehicle: saline with Tween-80) 87 % of control and 91 % of control; (dose: 200.0 mg/kg/injection, schedule: Q01DX005 (ip), vehicle: saline with Tween-80) 87 % of control.
Regarding `O=C1CC2C(CC3OC(=O)C4C3C23COC4(O)C(O)C3)c2occc21` (stereo unspecified), the T/C under setting [1] was 104 % of control and the T/C under setting [2] is 101 % of control.
In the case of `CC(=O)C(N)=O`, the T/C (dose: 50.0 mg/kg/injection, schedule: Q01DX005 (ip), vehicle: saline) was 98 % of control; the T/C (dose: 100.0 mg/kg/injection, schedule: Q01DX005 (ip), vehicle: saline) is 100 % of control; the T/C (dose: 200.0 mg/kg/injection, schedule: Q01DX005 (ip), vehicle: saline) is 101 % of control.
`CCN=C(CC(=O)C12CC3CC(CC(C3)C1)C2)N(CC)CC`: the T/C runs as follows: (dose: 12.5 mg/kg/injection, schedule: Q01DX009 (ip), vehicle: saline) 109 % of control; under setting [3], 112 % of control; under setting [4], 100 % of control and 103 % of control.
In the case of `Cc1ccc(-n2c(C)nc3[nH]cc(C)c3c2=N)cc1`, the T/C by setting is: (dose: 6.25 mg/kg/injection, schedule: Q01DX005 (ip), vehicle: Klucel (hydroxypropylcellulose) (HPC)) 101 % of control; (dose: 12.5 mg/kg/injection, schedule: Q01DX005 (ip), vehicle: Klucel (hydroxypropylcellulose) (HPC)) 99 % of control; (dose: 25.0 mg/kg/injection, schedule: Q01DX005 (ip), vehicle: Klucel (hydroxypropylcellulose) (HPC)) 99 % of control.
`CS(=O)CC1=NC(=N)N=C1CS(C)=O` (stereo unspecified): the T/C is, setting by setting: (dose: 60.0 mg/kg/injection, schedule: Q01DX005 (ip), vehicle: saline) 100 % of control; (dose: 120.0 mg/kg/injection, schedule: Q01DX005 (ip), vehicle: saline) 102 % of control; (dose: 240.0 mg/kg/injection, schedule: Q01DX005 (ip), vehicle: saline) 100 % of control.
For the compound `COc1cc(/C=N/NC(=O)CNC(=O)c2ccccc2)ccc1O`, the T/C is, setting by setting: (dose: 60.0 mg/kg/injection, schedule: Q01DX005 (ip), vehicle: saline with Tween-80) 93 % of control; under setting [5], 95 % of control; under setting [6], 94 % of control.
Consider `CCCCCC1C(=O)CNC1(C(=O)OCC)C(=O)OCC` (stereo unspecified), for which the T/C under setting [7] was 104 % of control; the T/C (dose: 25.0 mg/kg/injection, schedule: Q01DX009 (ip), vehicle: Klucel (hydroxypropylcellulose) (HPC)) was 108 % of control; the T/C under setting [8] was 104 % of control; the T/C under setting [9] is 88 % of control; the T/C under setting [10] is 89 % of control.
As to `CC(C)C(NC(=O)C(Cc1cnc[nH]1)NC(=O)OCc1ccccc1)C(=O)O` (stereo not drawn) (Cbz-His-Val-OH; configuration not given here), the T/C is, setting by setting: under setting [11], 101 % of control; under setting [12], 96 % of control; under setting [13], 100 % of control.
In the case of `O=C1C=CC(=O)[C@H]2CC=C3OC4OC5(CCCCC5)OC4[C@H]3[C@@H]12` (stereo partly specified), the T/C under setting [5] was 94 % of control and the T/C under setting [6] was 97 % of control.
In the case of `c1ccc(-c2[nH]c3cc4c(cc3c2-c2ccccc2)Oc2ccccc2O4)cc1`, the T/C was 116 % of control (dose: 17.5 mg/kg/injection, schedule: Q01DX009 (ip), vehicle: Klucel (hydroxypropylcellulose) (HPC)); 113 % of control (dose: 35.0 mg/kg/injection, schedule: Q01DX009 (ip), vehicle: Klucel (hydroxypropylcellulose) (HPC)); 104 % of control (dose: 70.0 mg/kg/injection, schedule: Q01DX009 (ip), vehicle: Klucel (hydroxypropylcellulose) (HPC)).
With `CCCCCCCCCC(O)(CSc1ccccc1)CSc1ccccc1`, the T/C reads like this: (dose: 50.0 mg/kg/injection, schedule: Q01DX009 (ip), vehicle: saline with Tween-80) 99 % of control; under setting [14], 100 % of control; under setting [15], 114 % of control.
Consider `CC1(C)CC(=O)C(=[N+]=[N-])C(=O)C1`, for which the T/C reads like this: (dose: 7.5 mg/kg/injection, schedule: Q01DX005 (ip), vehicle: saline with Tween-80) 105 % of control; (dose: 15.0 mg/kg/injection, schedule: Q01DX005 (ip), vehicle: saline with Tween-80) 105 % of control; (dose: 30.0 mg/kg/injection, schedule: Q01DX005 (ip), vehicle: saline with Tween-80) 102 % of control.
With `CC1=C(/C=C/C(C)=C/C=C/C(C)=C/C=C2/CCOC2=O)C(C)(C)CCC1`, the T/C (dose: 50.0 mg/kg/injection, schedule: Q01DX001 (ip), vehicle: saline with Tween-80) was 96 % of control; the T/C under setting [1] was 96 % of control; the T/C under setting [2] was 100 % of control.
As to `CCCCCC(/C=C/C1C(O[Si](C)(C)C(C)(C)C)CC(N(C)C)C1(C/C=C/CCCC#N)S(=O)(=O)c1ccccc1)O[Si](C)(C)C(C)(C)C` (stereo unspecified), the T/C by setting is: (dose: 60.0 mg/kg/injection, schedule: Q01DX005 (ip), vehicle: Klucel (hydroxypropylcellulose) (HPC)) 86 % of control; (dose: 120.0 mg/kg/injection, schedule: Q01DX005 (ip), vehicle: Klucel (hydroxypropylcellulose) (HPC)) 86 % of control.
In the case of `C(=C/c1cc2ccc(C3=NCCN3)cc2o1)/c1cc2ccc(C3=NCCN3)cc2[nH]1`, the T/C was 114 % of control (dose: 50.0 mg/kg/injection, schedule: Q04DX003 (ip), vehicle: suspension in saline); 158 % of control and 164 % of control (dose: 100.0 mg/kg/injection, schedule: Q04DX003 (ip), vehicle: suspension in saline); 298 % of control (dose: 200.0 mg/kg/injection, schedule: Q04DX003 (ip), vehicle: suspension in saline).
For `O=[N+]([O-])c1ccccc1CSc1ncnc2nc[nH]c12`, the T/C runs as follows: (dose: 50.0 mg/kg/injection, schedule: Q04DX003 (ip), vehicle: saline with Tween-80) 95 % of control; under setting [14], 90 % of control; (dose: 100.0 mg/kg/injection, schedule: Q04DX003 (ip), vehicle: saline with Tween-80) 109 % of control; under setting [15], 100 % of control; (dose: 200.0 mg/kg/injection, schedule: Q04DX003 (ip), vehicle: saline with Tween-80) 104 % of control; (dose: 400.0 mg/kg/injection, schedule: Q01DX009 (ip), vehicle: saline with Tween-80) 118 % of control.
As for `CN1CCCN(C)C1c1ccccc1`, the T/C under setting [3] was 105 % of control; the T/C under setting [4] is 110 % of control; the T/C (dose: 100.0 mg/kg/injection, schedule: Q01DX009 (ip), vehicle: saline) was 95 % of control.
Consider `CC(CN(C)C)Nc1c2ccccc2nc2cccc([N+](=O)[O-])c12` (stereo unspecified), for which the T/C is 87 % of control (dose: 0.04 mg/kg/injection, schedule: Q01DX009 (ip), vehicle: saline); 101 % of control (dose: 0.09 mg/kg/injection, schedule: Q01DX009 (ip), vehicle: saline); 102 % of control and 113 % of control (dose: 0.19 mg/kg/injection, schedule: Q01DX009 (ip), vehicle: saline); 109 % of control (dose: 0.39 mg/kg/injection, schedule: Q01DX009 (ip), vehicle: saline).
As for `C=CCN(CCNc1cccc2ccccc12)C1CCCCC1`, the T/C under setting [11] was 92 % of control, the T/C under setting [12] was 100 % of control and the T/C under setting [13] is 104 % of control.
Take `COc1cc(C2=N/C(=C/c3cccc(O)c3O)C(=O)O2)cc(OC)c1OC`: the T/C (dose: 6.25 mg/kg/injection, schedule: Q01DX009 (ip), vehicle: Klucel (hydroxypropylcellulose) (HPC)) was 101 % of control and the T/C under setting [7] is 96 % of control.
With `CNC(=O)N(C)CN(C)C(=O)NC`, the T/C under setting [8] is 100 % of control, the T/C under setting [9] was 106 % of control and the T/C under setting [10] was 107 % of control.
